Laboratory results published in patent publication US8278265B2, “Methods, kits and compositions comprising crotamine” (Fundacao de Amparo a Pesquisa do Estado de Sao Paulo—FAPESP, priority 2005, dated 2012).

Experiments:
[1] = system: embryonic stem cells (ES) of mice; assay: Embriotoxicity assay: cytotoxic effects on embryonic stem cells; assay type: cell-based; conditions: submicromolar concentrations, between 10^−6 and 10^−7 M; five days
Description: Bearing in mind that crotamine is a toxin, cytotoxic effects were tested on embryonic stem cells (ES) of mice which are non-differentiated cells, derived from the embryonic bud of blastocytes, and have as their main characteristic their pluripotence, an ability to differentiate to different types of tissues.
Such cells were chosen bearing in mind the usefulness of crotamine application for gene therapy (by means of stem cells) and transgenesis, as a carrier of other molecules to within cells. Four different concentrations were tested for five days. […] The assay was as follows.
Embryonic bodies (EBs) were obtained by the hanging drop method, as described above, using culture medium containing crotamine at various concentrations (100 μM to 0.1 μM), changing the medium every two to three days. To analyze the crotamine location in EBs under development, crotamine was substituted with crotamine linked to Cy3 (Cy3-crotamine) during the final 24 hours of incubation. Compact murine morulae (8-16 cells) were obtained from the oviduct and cultivated for 24 hours at 37° C. in 5% CO2, in individual microwells of V-bottom plates (Costar) with […] microwells in M16 medium (supplier: Sigma) and Cy3-crotamine (1-0.1 μM). After 24 hours of culture, normally developed blastocyst numbers were compared within the control and the experimental group.

human fibroblasts = assay: In vitro incorporation of Cy3-crotamine in human fibroblasts; assay type: cell-based; conditions: after one hour of incubation, FIG. 2A
Description: Embrionary stem cells (ES) from mice, line USP-1 (Soukoyan, M. A., Kerkis, A. Y., Mello, M. R. B., Kerkis, I. E., Visintin, J. A., Pereira, L. V. (2002), Establishment of New Murine Embryonic Stem Cell Lines for the Generation of Mouse Models of Human Genetic Diseases, Braz. J. Med. Biol. Res. 35, 535-542) in the passage 8-10 were cultured on a layer of γ-irradiated embrionary fibroblasts of mice, kept in DMEM (Gibco, U.S.A.), supplemented with 15% FCS (Gibco, U.S.A.), 1 mM sodium piruvate, 1% non-essential amino acids, 0.1 mM β-mercaptoethanol and 1×103 U/ml murine Leukemia Inhibitor Factor (LIF) (ESGRO-LIF, Gibco). Human lymphoblastoids and primary fibroblasts were cultivated in DMEM and in RPMI, respectively, supplemented with 10% FCS with no antibiotics. Cultures were kept under humid atmosphere at 37° C. and 5% CO2.
In vitro assay: Semiconffluent cultures of pluripotent and differentiation ES cells (homogeneous cell population), as well as other cell cultures of normal and tumor origin, were kept in small laminar slides placed in 24-well plates containing appropriate culture medium. Cells were incubated for 2-3 minutes to 72 hours in the presence of Cy3-crotamine, under concentrations between 10 μM and 0.01 μM, or as control, just in the presence of the dye agent Cy3 diluted in 1 ml PBS (control). […]

B16F10 cells = assay: Tumor treatment with natural crotamine; assay type: in vivo, Balb/c mouse
Description: The cells were maintained in Dulbecco's modified Eagle's cell culture medium (DMEM; Invitrogen, Carlsbad, Calif.) supplemented with 15% fetal calf serum (FCS; Invitrogen). The cells were kept at 37° C. with humidity and 5% CO2. After preparing a cell suspension with about 5×10^6 cells/ml of PBS [phosphate buffered solution], approximately 0.2 ml of this suspension was subcutaneously or endovenously (retroorbital injection) injected into each Balb/c mouse, of 4 to 6 weeks-old with body weight between 16 to 20 g. For negative control, the animals were injected with 0.2 ml of PBS. Before setting up the experiments, the animals were kept under 12 hour light-dark cycle, and were allowed to have water and food ad libitum. All animals were caged and handled under ethical conditions according to international rules of animal care, stated by the International Animal Welfare Recommendations, and in accordance with the Guidelines for the Use of Animals in Biochemical Research
30 minutes after endogenous injection of B16F10 cells, as described above, the animals were treated with 1 μg of crotamine/animal by daily subcutaneous injection, during 21 days.

mice = conditions: injected intraperitoneally; cited from earlier work

Question: For “YKQCHKKGGHCFPKEKICLPPSSDFGKMDCRWRWK CCKKGSG (YKQCHKKGGHCFPKEKICLPPSSDFGKMDCRWRWKCCKKGSG; UniProt Q9PWF3 23-64, looked up) [crotamine]”, which “cytotoxic effect on embryonic stem cells in culture” value [1] is on record?
Answer: does not present any cytotoxic effect

Question: And the “labeling of human fibroblasts” value (human fibroblasts)?
Answer: intensively marked

Question: What about the “tumor positive animals, 18th day” value (B16F10 cells; 1 μg/animal daily s.c., day 18) of the same sequence?
Answer: 3

Question: What about the “tumor positive animals, 20th day” value (B16F10 cells; 1 μg/animal daily s.c., day 20) of the same sequence?
Answer: 2

Question: What about the “Total positive animals up to 21th day” value (B16F10 cells; 1 μg/animal daily s.c., days 10-21) of the same sequence?
Answer: 5 posit.

Question: What about the “effect on tumor formation compared to the control group” value (B16F10 cells; 1 μg/animal daily subcutaneous injection, 21 days) of the same sequence?
Answer: delay or even inhibited the tumor formation

Question: What about the “tumor positive animals, 25th day” value (B16F10 cells; observation after end of treatment, day 25) of the same sequence?
Answer: 9

Question: What about the “tumor positive animals, 29th day” value (B16F10 cells; observation after end of treatment, day 29) of the same sequence?
Answer: 9

Question: And the “tumor positive animals, 35th day” value (B16F10 cells; observation after end of treatment, day 35)?
Answer: 12

Question: And the “tumor positive animals, 48th day” value (B16F10 cells; observation after end of treatment, day 48)?
Answer: 12

Question: And the ratio of positives (B16F10 cells; up to day 21)?
Answer: 0.33

Question: What about the “time to paralysis of the hind legs” value (mice) of the same sequence?
Answer: less than 15 minutes
